Values of other authors as cited in patent publication US9884022B2, “Controlled release pharmaceutical compositions of tapentadol” (LUPIN LIMITED, priority 2010, dated 2018).

Conditions: background statement on immediate release compositions

With `CCC(c1cccc(O)c1)C(C)CN(C)C` (stereo not shown) [tapentadol, 3-(3-dimethylamino-1-ethyl-2-methyl-propyl) phenol] as the compound, how does the half life read?
Its half life is 4 h.
